How the values were obtained:
Assay type in all cases: biochemical
[1] = target: T1, PfAsnRS (Plasmodium falciparum cytoplasmic asparaginyl tRNA synthetase) (Plasmodium falciparum, UniProt O96198); experiment: ATP consumption assay of recombinant enzyme
T1 construct: gene PF3D7_0211800; recombinant wildtype PfAsnRS, His-tag removed

[2] = target: T1, PfAsnRS (Plasmodium falciparum cytoplasmic asparaginyl tRNA synthetase); experiment: ATP consumption assay of recombinant enzyme without tRNA, synthetic adduct
[3] = target: T2, PfAsnRS (Plasmodium falciparum cytoplasmic asparaginyl tRNA synthetase) (Plasmodium falciparum, UniProt O96198, R487S); experiment: ATP consumption assay of recombinant mutant enzyme with tRNA
T2 construct: gene PF3D7_0211800; recombinant PfAsnRSR487S
T2 sequence (O96198 1-610 R487S): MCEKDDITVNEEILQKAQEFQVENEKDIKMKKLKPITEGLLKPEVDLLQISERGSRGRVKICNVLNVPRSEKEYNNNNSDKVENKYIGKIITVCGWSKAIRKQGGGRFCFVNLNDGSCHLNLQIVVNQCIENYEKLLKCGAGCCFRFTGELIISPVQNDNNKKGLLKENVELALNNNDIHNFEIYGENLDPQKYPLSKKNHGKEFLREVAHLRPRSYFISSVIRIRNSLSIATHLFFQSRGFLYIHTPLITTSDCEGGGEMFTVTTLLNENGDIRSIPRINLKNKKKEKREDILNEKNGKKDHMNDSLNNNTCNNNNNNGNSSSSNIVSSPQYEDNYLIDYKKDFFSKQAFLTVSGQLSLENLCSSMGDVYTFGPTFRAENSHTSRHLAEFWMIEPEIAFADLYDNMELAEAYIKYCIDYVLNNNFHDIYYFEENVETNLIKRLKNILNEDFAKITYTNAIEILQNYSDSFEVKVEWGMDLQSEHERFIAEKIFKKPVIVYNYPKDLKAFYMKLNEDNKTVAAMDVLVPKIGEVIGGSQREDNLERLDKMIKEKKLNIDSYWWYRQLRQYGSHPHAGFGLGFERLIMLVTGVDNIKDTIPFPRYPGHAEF

[4] = target: T1, PfAsnRS (Plasmodium falciparum cytoplasmic asparaginyl tRNA synthetase); experiment: ATP consumption assay of recombinant enzyme with tRNA; Asn adduct found by LC-MS

Nc1ncnc2c1ncn2[C@@H]1O[C@H](COS(N)(=O)=O)[C@@H](O)[C@H]1O [AMS, adenosine 5’-sulfamate]
IC50 [1]: 0.0037 µM

NC(=O)C[C@H](N)C(=O)NS(=O)(=O)c1cccc(-c2cc3ncnc(N)c3s2)c1 [Asn-OSM-S-106]
IC50 [2]: 2.6 / 3.3 μM

Nc1ncnc2cc(-c3cccc(S(N)(=O)=O)c3)sc12 [OSM-S-106]
IC50 [3]: 26.3 µM | IC50 [4]: 3.6 µM

Reference: paper PMC10402266, “Reaction hijacking inhibition of Plasmodium falciparum asparagine tRNA synthetase” (Research Square, 2023)
